Columns and labels:
Assay type in all cases: in vivo
[1] = tested on: ragweed (common ragweed, Ambrosia elatior); test: Test A preemergence; details: Ambrosia artemisiifolia, pre-emergence, 240 h, 0 to 100 scale where 0 is no effect and 100 is complete control, read-out: Ragweed plant response rating
Summary of the method: (§1)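 Preemergence soil spray on seeded pots or post-emergence spray on 1–2 leaf plants, in loam–sand blend. Greenhouse ~10 d. Visual rating 0–100 against untreated plants.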

[2] = tested on: ryegrass, Italian (Italian ryegrass, Lolium multiflorum); test: Test A preemergence; details: Lolium multiflorum, pre-emergence, 240 h, 0 to 100 scale where 0 is no effect and 100 is complete control, read-out: Ryegrass, Italian plant response rating
Summary of the method: as §1

[3] = tested on: Kochia (Kochia scoparia); test: Test A preemergence; details: Bassia scoparia, pre-emergence, 240 h, 0 to 100 scale where 0 is no effect and 100 is complete control, read-out: Kochia plant response rating
Summary of the method: as §1

[4] = tested on: barnyardgrass (Echinochloa crus-galli); test: Test A preemergence; details: Echinochloa crus-galli, pre-emergence, 240 h, 0 to 100 scale where 0 is no effect and 100 is complete control, read-out: Barnyardgrass plant response rating
Summary of the method: as §1

[5] = tested on: pigweed (Amaranthus retroflexus); test: Test A preemergence; details: Amaranthus retroflexus, pre-emergence, 240 h, 0 to 100 scale where 0 is no effect and 100 is complete control, read-out: Pigweed plant response rating
[6] = tested on: giant foxtail (Setaria faberii); test: Test A preemergence; details: Setaria faberi, pre-emergence, 240 h, 0 to 100 scale where 0 is no effect and 100 is complete control, read-out: Foxtail, Giant plant response rating
Summary of the method: as §1

[7] = tested on: ragweed (common ragweed, Ambrosia elatior); test: Test A postemergence; details: Ambrosia artemisiifolia, post-emergence, 240 h
Summary of the method: as §1

[8] = tested on: blackgrass (Alopecurus myosuroides); test: Test A postemergence; details: Alopecurus myosuroides, post-emergence, 240 h
Summary of the method: as §1

[9] = tested on: wheat (Triticum aestivum); test: Test A postemergence; details: Triticum aestivum, post-emergence, 240 h
Summary of the method: as §1

[10] = tested on: ryegrass, Italian (Italian ryegrass, Lolium multiflorum); test: Test A postemergence; details: Lolium multiflorum, post-emergence, 240 h
Summary of the method: as §1

[11] = tested on: Galium (catchweed bedstraw, Galium aparine); test: Test A postemergence; details: Galium, post-emergence, 240 h
Summary of the method: as §1

[12] = tested on: Kochia (Kochia scoparia); test: Test A postemergence; details: Bassia scoparia, post-emergence, 240 h
Summary of the method: as §1

[13] = tested on: corn (Zea mays); test: Test A postemergence; details: Zea mays, post-emergence, 240 h
Summary of the method: as §1

[14] = tested on: barnyardgrass (Echinochloa crus-galli); test: Test A postemergence; details: Echinochloa crus-galli, post-emergence, 240 h
Summary of the method: as §1

[15] = tested on: pigweed (Amaranthus retroflexus); test: Test A postemergence; details: Amaranthus retroflexus, post-emergence, 240 h
Summary of the method: as §1

[16] = tested on: giant foxtail (Setaria faberii); test: Test A postemergence; details: Setaria faberi, post-emergence, 240 h
Summary of the method: as §1

[17] = tested on: sedge, umbrella (small-flower umbrella sedge, Cyperus difformis); test: Test B flooded paddy test; details: Cyperus difformis, 250 g ai/ha, Flood; 0 to 100 scale where 0 is no effect and 100 is complete control; read-out: Sedge, Umbrella plant response rating
Summary of the method: (§2)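 Percent control, visually estimated after 13–15 d in the greenhouse on a 0–100 basis, compares treated pots with untreated ones; compound was put into paddy water 3 cm above the soil when plants had two leaves.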

[18] = tested on: ducksalad (Heteranthera limosa); test: Test B flooded paddy test; details: Heteranthera limosa, 250 g ai/ha, Flood; 0 to 100 scale where 0 is no effect and 100 is complete control; read-out: Ducksalad plant response rating
Summary of the method: as §2

[19] = tested on: rice (Oryra sativa); test: Test B flooded paddy test; details: Oryza sativa, 250 g ai/ha, Flood; 0 to 100 scale where 0 is no effect and 100 is complete control; read-out: Rice plant response rating
Summary of the method: as §2

[20] = tested on: barnyardgrass (Echinochloa crus-galli); test: Test B flooded paddy test; details: Echinochloa crus-galli, 250 g ai/ha, Flood; 0 to 100 scale where 0 is no effect and 100 is complete control; read-out: Barnyardgrass plant response rating
Summary of the method: as §2

[21] = 125 g ai/ha, preemergence, approx. 10 d

Structure (SMILES): C=C(C)c1cccc([C@H]2CN(C)C(=O)[C@@H]2C(=O)Nc2cccc(F)c2C)c1 [Compound 1086]
- pest or weed control at 31 g/ha ([1]; 31 g ai/ha, Preemergence): 0%
- pest or weed control at 125 g/ha [1, 21]: 0%
- pest or weed control at 31 g/ha ([2]; 31 g ai/ha, Preemergence): 0%
- pest or weed control at 125 g/ha [2, 21]: 30%
- pest or weed control at 31 g/ha ([3]; 31 g ai/ha, Preemergence): 0%
- pest or weed control at 125 g/ha [3, 21]: 0%
- pest or weed control at 31 g/ha ([4]; 31 g ai/ha, Preemergence): 80%
- pest or weed control at 125 g/ha [4, 21]: 80%
- pest or weed control at 31 g/ha ([5]; 31 g ai/ha, Preemergence): 0%
- pest or weed control at 125 g/ha [5, 21]: 0%
- pest or weed control at 31 g/ha ([6]; 31 g ai/ha, Preemergence): 90%
- pest or weed control at 125 g/ha [6, 21]: 100%
- pest or weed control at 125 g/ha ([7]; 125 g ai/ha, postemergence, visual injury on 0 to 100 scale (0 no effect, 100 complete control), approx. 10 d, read-out: Ragweed plant response rating): 0%
- pest or weed control at 31 g/ha ([7]; Postemergence, 31 g ai/ha, visual injury after approx. 10 d, 0 to 100 scale, 0 no effect, 100 complete control, read-out: Plant response rating, Ragweed): 0%
- pest or weed control at 125 g/ha ([8]; 125 g ai/ha, postemergence, visual injury on 0 to 100 scale (0 no effect, 100 complete control), approx. 10 d, read-out: Blackgrass plant response rating): 0%
- pest or weed control at 31 g/ha ([8]; Postemergence, 31 g ai/ha, visual injury after approx. 10 d, 0 to 100 scale, 0 no effect, 100 complete control, read-out: Plant response rating, Blackgrass): 0%
- plant injury at 125 g/ha ([9]; 125 g ai/ha, postemergence, visual injury on 0 to 100 scale (0 no effect, 100 complete control), approx. 10 d, read-out: Wheat plant response rating): 20%
- plant injury at 31 g/ha ([9]; Postemergence, 31 g ai/ha, visual injury after approx. 10 d, 0 to 100 scale, 0 no effect, 100 complete control, read-out: Plant response rating, Wheat): 0%
- pest or weed control at 125 g/ha ([10]; 125 g ai/ha, postemergence, visual injury on 0 to 100 scale (0 no effect, 100 complete control), approx. 10 d, read-out: Ryegrass, Italian plant response rating): 0%
- pest or weed control at 31 g/ha ([10]; Postemergence, 31 g ai/ha, visual injury after approx. 10 d, 0 to 100 scale, 0 no effect, 100 complete control, read-out: Plant response rating, Ryegrass, Italian): 0%
- pest or weed control at 125 g/ha ([11]; 125 g ai/ha, postemergence, visual injury on 0 to 100 scale (0 no effect, 100 complete control), approx. 10 d, read-out: Galium plant response rating): 20%
- pest or weed control at 31 g/ha ([11]; Postemergence, 31 g ai/ha, visual injury after approx. 10 d, 0 to 100 scale, 0 no effect, 100 complete control, read-out: Plant response rating, Galium): 0%
- pest or weed control at 125 g/ha ([12]; 125 g ai/ha, postemergence, visual injury on 0 to 100 scale (0 no effect, 100 complete control), approx. 10 d, read-out: Kochia plant response rating): 0%
- pest or weed control at 31 g/ha ([12]; Postemergence, 31 g ai/ha, visual injury after approx. 10 d, 0 to 100 scale, 0 no effect, 100 complete control, read-out: Plant response rating, Kochia): 0%
- plant injury at 125 g/ha ([13]; 125 g ai/ha, postemergence, visual injury on 0 to 100 scale (0 no effect, 100 complete control), approx. 10 d, read-out: Corn plant response rating): 30%
- Corn plant response rating (crop injury, 0 = no effect, 100 = complete kill) at 31 g/ha ([13]; Postemergence, 31 g ai/ha, visual injury after approx. 10 d, 0 to 100 scale, 0 no effect, 100 complete control): 0%
- pest or weed control at 125 g/ha ([14]; 125 g ai/ha, postemergence, visual injury on 0 to 100 scale (0 no effect, 100 complete control), approx. 10 d, read-out: Barnyardgrass plant response rating): 90%
- pest or weed control at 31 g/ha ([14]; Postemergence, 31 g ai/ha, visual injury after approx. 10 d, 0 to 100 scale, 0 no effect, 100 complete control, read-out: Plant response rating, Barnyardgrass): 30%
- pest or weed control at 125 g/ha ([15]; 125 g ai/ha, postemergence, visual injury on 0 to 100 scale (0 no effect, 100 complete control), approx. 10 d, read-out: Pigweed plant response rating): 0%
- pest or weed control at 31 g/ha ([15]; Postemergence, 31 g ai/ha, visual injury after approx. 10 d, 0 to 100 scale, 0 no effect, 100 complete control, read-out: Plant response rating, Pigweed): 0%
- pest or weed control at 125 g/ha ([16]; 125 g ai/ha, postemergence, visual injury on 0 to 100 scale (0 no effect, 100 complete control), approx. 10 d, read-out: Foxtail, Giant plant response rating): 60%
- pest or weed control at 31 g/ha ([16]; Postemergence, 31 g ai/ha, visual injury after approx. 10 d, 0 to 100 scale, 0 no effect, 100 complete control, read-out: Plant response rating, Foxtail, Giant): 10%
- pest or weed control at 250 g/ha [17]: 0%
- pest or weed control at 250 g/ha [18]: 40%
- pest or weed control at 250 g/ha [19]: 0%
- pest or weed control at 250 g/ha [20]: 45%

Source: patent publication US12077503B2, “Substituted cyclic amides and their use as herbicides” (FMC CORPORATION, priority 2015, dated 2024)
